Data on eight compounds can be found in patent US20080261977A1, “Pyrimidine Derivatives as Cannabinoid Receptor Modulators” (priority 2004, published 2008).

For experiment [1], the target named is T1, human cannabinoid CB1 receptor (Homo sapiens, UniProt P21554).
T1 construct: expressed in transfected cells; host or cells: Saccharomyces cerevisiae strain MMY23 (cassette integrated at the ura3 locus; chimeric Gpa1/Gαi3)
Briefly: Cannabinoid CB1 receptor agonist activity, yeast (Saccharomyces cerevisiae) cells expressing the receptor, FDGlu fluorescence. The format is cell-based. As to conditions: for Emax: read-out: efficacy (Emax relative to HU210) at the cloned human CB1 receptor. Here is the method: The cannabinoid CB1 receptor agonist activity of the compounds of formula (I) was determined in accordance with the following experimental method.
Yeast (Saccharomyces cerevisiae) cells expressing the human cannabinoid CB1 receptor were generated by integration of an expression cassette into the ura3 chromosomal locus of yeast strain MMY23. This cassette consisted of DNA sequence encoding the human CB1 receptor flanked by the yeast GPD promoter to the 5′ end of CB 1 and a yeast transcriptional terminator sequence to the 3′ end of CB1. MMY23 expresses a yeast/mammalian chimeric G-protein alpha subunit in which the C-terminal 5 amino acids of Gpal are replaced with the C-terminal 5 amino acids of human Gαi3 (as described in Brown et al. (2000), Yeast 16:11-22). Cells were grown at 30° C. in liquid Synthetic Complete (SC) yeast media (Guthrie and Fink (1991), Methods in Enzymology, Vol. 194) lacking uracil, tryptophan, adenine and leucine to late logarithmic phase (approximately 6 OD600/ml).
Agonists were prepared as 10 mM stocks in DMSO. EC50 values (the concentration required to produce 50% maximal response) were estimated using dilutions of between 3- and 5-fold (BiomekFX, Beckman) into DMSO. Agonist solutions in DMSO (1% final assay volume) were transferred into black, clear bottom, microtitre plates from NUNC (96- or 384-well). Cells were suspended at a density of 0.2 OD600/ml in SC media lacking histidine, uracil, tryptophan, adenine and leucine and supplemented with 10 mM 3-aminotriazole, 0.1M sodium phosphate pH 7.0, and 20 μM fluorescein di-β-D-glucopyranoside (FDGlu). This mixture (50 ul per well for 384-well plates, 200 ul per well for 96-well plates) was added to agonist in the assay plates (Multidrop 384, Labsystems). After incubation at 30° C. for 24 hours, fluorescence resulting from degradation of FDGlu to fluorescein due to exoglucanase, an endogenous yeast enzyme produced during agonist-stimulated cell growth, was determined using a Spectrofluor microtitre plate reader (Tecan; excitation wavelength: 485 nm; emission wavelength: 535 nm). Fluorescence was plotted against compound concentration and iteratively curve fitted using a four parameter fit to generate a concentration effect value. Efficacy (Emax) was calculated from the equation […]
where Max[compound X] and Min[compound X] are the fitted maximum and minimum respectively from the concentration effect curve for compound X, and Max[HU210] and Min[HU210] are the fitted maximum and minimum respectively from the concentration effect curve for (6aR,10aR)-3-(1,1′-Dimethylheptyl)-6a,7,10,10a-tetrahydro-1 hydroxy-6,6-dimethyl-6H-dibenzo[b,d]pyran-9-methanol (HU210; available from Tocris). Equieffective molar ratio (EMR) values were calculated from the equation […]

Experiment [2] concerns the target T2, human cannabinoid CB2 receptor (Homo sapiens, UniProt P34972).
T2 construct: expressed in transfected cells; host or cells: Saccharomyces cerevisiae strain MMY23 (cassette integrated at the ura3 locus; chimeric Gpa1/Gαi3)
Description: Cannabinoid CB2 receptor agonist activity, yeast (Saccharomyces cerevisiae) cells expressing the receptor, FDGlu fluorescence. The note with it: for Emax: read-out: efficacy (Emax relative to HU210) at the cloned human cannabinoid CB2 receptor. The format is cell-based. The essentials: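 S. cerevisiae MMY23 expressing human CB2 with a Gpa1/Gαi3 chimeric G-protein were incubated 24 h at 30° C with agonist in selective medium containing 3-aminotriazole and FDGlu, pH 7.0. Growth-linked fluorescein fluorescence (485/535 nm) gave EC50 by four-parameter fit; Emax and EMR expressed relative to HU210.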

Where [3] appears, read: yeast agonist assay, read-out: EC50 at the cloned human cannabinoid CB2 receptor.

Structures can show the parent of a compound that is named as a salt. Where two headings read alike, the source gives them in different places. Bounds are passed on as bounds.

T1 sequence (P21554 whole entry): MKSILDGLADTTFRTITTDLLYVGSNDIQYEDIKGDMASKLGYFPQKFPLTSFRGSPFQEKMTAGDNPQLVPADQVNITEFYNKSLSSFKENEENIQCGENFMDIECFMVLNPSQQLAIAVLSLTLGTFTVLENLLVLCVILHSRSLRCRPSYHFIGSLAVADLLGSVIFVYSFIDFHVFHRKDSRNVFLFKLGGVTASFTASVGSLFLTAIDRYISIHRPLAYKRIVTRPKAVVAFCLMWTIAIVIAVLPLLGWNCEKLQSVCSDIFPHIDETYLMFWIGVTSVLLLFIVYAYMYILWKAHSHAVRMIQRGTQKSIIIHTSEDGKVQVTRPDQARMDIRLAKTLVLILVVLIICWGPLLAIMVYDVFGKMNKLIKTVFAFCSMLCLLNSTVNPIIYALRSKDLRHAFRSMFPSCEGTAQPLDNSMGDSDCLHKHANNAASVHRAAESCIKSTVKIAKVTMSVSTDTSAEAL
T2 sequence (P34972 whole entry): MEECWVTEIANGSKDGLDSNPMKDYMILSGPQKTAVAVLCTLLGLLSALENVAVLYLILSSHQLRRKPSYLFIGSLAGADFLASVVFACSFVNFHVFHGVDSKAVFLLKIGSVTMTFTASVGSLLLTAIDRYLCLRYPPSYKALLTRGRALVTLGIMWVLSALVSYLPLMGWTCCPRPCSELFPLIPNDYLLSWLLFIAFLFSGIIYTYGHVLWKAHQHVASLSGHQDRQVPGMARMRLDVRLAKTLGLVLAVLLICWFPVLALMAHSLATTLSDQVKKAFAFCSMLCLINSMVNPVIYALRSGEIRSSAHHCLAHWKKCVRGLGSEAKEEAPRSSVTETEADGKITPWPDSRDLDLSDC

With `CC(NCC1CCCCC1)c1cnc(Nc2cccc(Cl)c2)nc1C(F)(F)F` (centres unmarked) [Example 89, (3-Chlorophenyl)-{5-[1-(cyclohexylmethyl-amino)-ethyl]-4-trifluoromethyl-pyrimidin-2-yl}-amine, formate], the maximal response (Emax) in experiment [1] was 50 to 100%; in experiment [2] (yeast agonist assay) it was more than 50%. The EC50 in experiment [1] (yeast agonist assay, read-out: EC50 at the cloned human CB1 receptor) was 0.3 to 1 µM; in experiment [2] (setting [3]), less than 0.3 µM.

`CC(NCC1CCOCC1)c1cnc(Nc2ccc(Cl)cc2Cl)nc1C(F)(F)F` (centres unmarked) [Example 91, (2,4-Dichlorophenyl)-(5-{1-[(tetrahydro-pyran-4-ylmethyl)-amino]-ethyl}-4-trifluoromethyl-pyrimidin-2-yl)-amine]: in experiment [1], the 50% effective concentration (EC50) was in the range of 0.3 to 1 µM and the maximum response (Emax) lay in the range of 50 to 100%. Further, in experiment [2], the 50% effective concentration (EC50) is less than 0.3 µM and the maximal response (Emax) is more than 50%.

Regarding `CC(C)c1nc(Nc2cccc(Cl)c2)ncc1CNC1CCC1` [Example 98, (3-Chloro-phenyl)-{5-[(cyclobutylamino)-methyl]-4-isopropyl-pyrimidin-2-yl}-amine hydrochloride], the EC50 in experiment [2] (setting [3]) is less than 0.3 µM. In addition, the Emax in experiment [2] (yeast agonist assay) was more than 50%.

In the case of `CC(C)(C)c1nc(Nc2cccc(Cl)c2)ncc1CNCC1CCOCC1` [Example 99, (4-tert-Butyl-5-{[(tetrahydro-pyran-4-ylmethyl)-amino]-methyl}-pyrimidin-2-yl)-(3-chloro-phenyl)-aminehydrochloride], the half-maximal effective concentration (EC50) in experiment [2] (setting [3]) was less than 0.3 µM. In experiment [2] (yeast agonist assay), the Emax is more than 50%.

On to `CC(C)(C)c1nc(Nc2cccc(Cl)c2)ncc1CNCc1ccc(F)cc1` [Example 100, (4-tert-Butyl-5-[(4-fluoro-benzylamino)-methyl]-pyrimidin-2-yl}-(3-chloro-phenyl)-amine hydrochloride], for which the EC50 in experiment [2] (setting [3]) is less than 0.3 µM. Moreover, the Emax in experiment [2] (yeast agonist assay) is more than 50%.

As for `COCCNCc1cnc(Nc2cccc(Cl)c2)nc1C(C)(C)C` [Example 101, (4-tert-Butyl-5-[(2-methoxy-ethylamino)-methyl]-pyrimidin-2-yl}-(3-chloro-phenyl)-aminehydrochloride], the Emax in experiment [2] was more than 50%. The EC50 in experiment [2] (setting [3]) is less than 0.3 µM.

As to `CC(C)CNCc1cnc(Nc2cccc(Cl)c2)nc1C(C)(C)C` [Example 102, (4-tert-Butyl-5-(isobutylamino-methyl)-pyrimidin-2-yl]-(3-chloro-phenyl)-aminehydrochloride], the EC50 in experiment [2] (setting [3]) is less than 0.3 µM. Also, the Emax in experiment [2] (yeast agonist assay) was more than 50%.

For `CC(C)(C)c1nc(Nc2cccc(Cl)c2)ncc1CNCC1CC1` [Example 103, (4-tert-Butyl-5-[(cyclopropylmethyl-amino)-methyl]-pyrimidin-2-yl}-(3-chloro-phenyl)-aminehydrocholoride], in experiment [2] (setting [3]), the concentration giving a half-maximal response (EC50) is less than 0.3 µM. The maximum response (Emax) in experiment [2] (yeast agonist assay) was more than 50%.

By Emax is commonly meant the maximal effect, on the per cent scale that the assay sets. Usually EC50 stands for the concentration needed to bring the measured effect to its halfway point.
